Assay results published in publication PMC10382351, “In vivo evaluation of a novel ^18F-labeled PET radioligand for translocator protein 18 kDa (TSPO) in monkey brain” (European Journal of Nuclear Medicine and Molecular Imaging, 2023).
“And” between values parts separate entries of the source, which are not always exact repeats. Equal values may be shown once.

Legend:
[1] = Parent radioactivity and radiometabolite analysis in arterial plasma (HPLC); format: in vivo, rhesus monkey; details: for Peak parent concentration in arterial plasma: n = 3
Experimental: (§1) Arterial blood sampling was performed in all scans to determine plasma parent concentration of the radioligand. Seventeen blood samples were drawn from an implanted port in the femoral artery of the monkeys during the 180-min PET scans at 15-s intervals for the first two minutes, followed by samples at 3, 5, 10, 30, 60, 90, 120, 150, and 180 min (volumes varied from 1.0 to 5.0 mL). Radioactivity in plasma was quantified and corrected for radiometabolites using high-performance liquid chromatography (HPLC). The separation was performed on an X-Terra C18 column (10 µm, 7.8 × 300 mm) with an isocratic mobile phase composed of methanol: water: triethylamine (77.5:22.5:0.1 by vol.) at a flow rate of 5 mL/min. The plasma free fraction (fP) was measured by ultrafiltration, as previously described. A standard fP was measured in a frozen aliquot of pooled plasma in parallel with the experimental blood sample, and as internal standard it was then used to normalize the measured fP of the blood samples.

[2] = Plasma free fraction (fP) by ultrafiltration; format: in vitro ADME, rhesus monkey; details: for Plasma free fraction fP / fraction unbound: n = 3; for fraction unbound: male, rhesus monkey, plasma
Experimental: as §1

[3] = target: T1, TSPO (Mus musculus, UniProt P50637); test: PET study in mice at baseline and after PK11195; format: in vivo
T1 construct: from tissue; host or cells: living mice, whole-brain ROI, also lung (in vivo PET)
Experimental: Imaging experiments were performed on a microPET Focus 120 camera (Siemens Medical Solution; Knoxville, TN). Mice were anesthetized with 1.5% isoflurane in oxygen at a flow rate of 1 L/min. [^18F]SF51 (150 µL; 2.9 ± 0.6 MBq) was injected intravenously through the tail vein of each mouse. Baseline scans were obtained in 12 mice, and another eight mice were imaged after pre-administration of 5 mg/kg PK11195. Scans were acquired for 120 min. Data were histogrammed into 24 time frames (6 × 20, 5 × 60, 4 × 120, 3 × 300, 3 × 600 and 3 × 1200 s) and reconstructed using Fourier rebinning plus a two-dimensional filtered back projection. No scatter or attenuation corrections were applied. PET images were analyzed using PMOD with a single ROI of the whole brain.

[4] = Ex vivo radioanalysis of mouse brain and plasma 120 min after injection; format: in vivo, mice
Experimental: An ex vivo experiment was performed in another mouse 120 min after [^18F]SF51 injection. Anticoagulated blood was withdrawn from the myocardium, and the brain was extracted. The harvested brain was weighed and immediately underwent radioanalysis. The plasma was separated by centrifugation, and the radioactivity in both whole blood and plasma was measured as previously described.

[5] = representative radiochromatogram, baseline study, at 30 minutes
[6] = mouse, after blockade with PK11195

Average percentage of parent in plasma ([1]; at 120 min, roughly the same until 180 min, HPLC): 25%
Peak parent concentration in arterial plasma ([1]; baseline): 4.1 ± 0.4 SUV
Peak parent concentration in arterial plasma ([1]; blocked with PK11195 5 mg/kg): 7.5 ± 1.7 SUV
Number of radiometabolites in plasma (more hydrophilic than the parent) ([1]; monkey arterial plasma, HPLC): At least five
Parent in arterial plasma [1, 5]: 36%
Total radiometabolites in arterial plasma [1, 5]: 64%
Plasma free fraction fP ([2]; baseline scans): 6 ± 1%
Plasma free fraction fP ([2]; blocked scans (PK11195)): 19 ± 4%
fraction unbound ([2]; baseline scans): 0.064 ± 0.007
fraction unbound ([2]; blocked scans (PK11195)): 0.188 ± 0.036
fPblock ([2]; one monkey, after PBR28 pre-blockade (5 mg/kg)): 19.3%
fPbase ([2]; one monkey, baseline scan of the PBR28 experiment): 5.7%
fP of the internal standard (frozen aliquot of pooled plasma) ([2]; six PET scans): 2.4 to 3.8%
Blockade of radioligand in mouse brain ([3]; after i.v. 5 mg/kg PK11195): about 80%
Radioactivity in bone ([3]; mouse): No significant increase in radioactivity
Uptake in lung (blockable) ([3]; mouse): > 2 SUV
Peak brain uptake [3, 6]: ~ 2.5 SUV
Time of peak brain uptake [3, 6]: three
Peak brain uptake ([3]; mouse, baseline): ~ 0.8 SUV
Time of peak brain uptake ([3]; mouse, baseline): around 15 min
Brain activity after blockade relative to baseline ([3]; mouse, last 80 min of scanning, PK11195): 25 % of that at baseline
Parent radioligand as share of radioactivity in plasma [4]: 9.1%
Parent radioligand as share of radioactivity in the brain [4]: 96% and 96.4%
Structure (SMILES): CC[C@@H](C)N(C)C(=O)c1nc(-c2cccc([18F])c2)c2ccccc2n1 [[^18F]SF51]
